Experimental data as given in US7563805B2, “Tri-, tetra-substituted-3-aminopyrrolidine derivative” (Daiichi Pharmaceutical Co., Ltd., priority 2005, dated 2009).
In brackets after ≈: the same amount, converted by molar mass. Read-outs that look alike come from different tables or passages of the source.

How the values were obtained:
[1] = system: bone marrow cells (polychromatic erythrocytes); assay: mouse bone marrow micronucleus test; assay type: in vivo, Slc:ddY male mice
Protocol: The control was 0.1 mol/l NaOH/physiological saline solvent, and the positive control was cyclophosphamide (cyclophoshamide, CP) dissolved and diluted in physiological saline. All samples were sterilized by filtering through Milex GS filter (0.22 μm). Each solution was intravenously administered at a dose of 10 mL/kg in single dose at an administration rate of 0.2 mL/min.
Bone marrow cells were collected from thigh bone at 24 hours after the administration, and smear preparation was prepared. After staining with acridine orange, 1000 polychromatic erythrocytes per animal were observed under fluorescence microscope to count frequency of micrronucleated polychromatic erythrocyte and ratio of the orthochromatic erythrocytes to the polychromatic erythrocyte in 1000 erythrocytes.

[2] = assay type: in vivo; details: 30 minutes observation
Protocol: The test substance was intracisternally administered to male Slc:ddy mice (6 animals per group), and the convulsion and death were monitored for each cage until 30 minutes after the administration. The test substance was dissolved in 5 μl of 1% aqueous solution of lactic acid, and the dose was 5, 15, or 50 μg per animal.

[3] = rat, in vivo, po, 5 mg/kg
Protocol: (§1) The Comparative compound was also evaluated by the same procedure.
(§2) The test substance was orally administered to fasted rats (7 week old male Crj:CD IGS rats purchased from Charles River Laboratories Japan, Inc.) at a dose of 5 mg/kg.
(§3) Animals of absorption test group (3 animals per group) were sacrificed by bleeding under etherization at 0.25, 0.5, 1, 2, 4, and 8 hours after the drug administration, and blood, lever, kidney, and lung were collected. The blood was centrifuged (3000 rpm×15 minutes, 4° C.) after coagulation to collect serum. Tissue was homogenized after adding 3 to 5 mL of 0.1 mol/l phosphate buffer (pH 7.0), and the supernatant was collected from the homogenate (3000 rpm×15 minutes, 4° C.).
(§4) Animals of excretion test group (3 animals per group) were placed in a metabolic cage, and the urine of 0 to 4 hours and 4 to 24 hours after the administration was collected in a water-cooled container. Simultaneously with the collection of the urine, the cage was also washed with about 15 mL of 0.1 mol/l phosphate buffer (pH 7.0) to collect the urine attached to the cage. For evaluation of conjugates such as glucuronide, the collected sample was also aliquoted and hydrolyzed with an equal amount of 1 mol/l aqueous solution of sodium hydroxide, and the hydrolysate was neutralized with 0.5 mol/l hydrochloric acid and measured for its concentration. The concentration was measured by LC-MS/MS method.
(§5) Pharmacokinetic parameters of the each drug in rat were calculated by from the time course of the average concentration by using pharmacokinetic analysis software PSAG-CP (AS Medica Inc.) in a manner not dependent on the model animal.

hERG K+ channel [4] = biological target: T1, hERG K+ channel (Homo sapiens, UniProt Q12809)
T1 sequence (Q12809 whole entry): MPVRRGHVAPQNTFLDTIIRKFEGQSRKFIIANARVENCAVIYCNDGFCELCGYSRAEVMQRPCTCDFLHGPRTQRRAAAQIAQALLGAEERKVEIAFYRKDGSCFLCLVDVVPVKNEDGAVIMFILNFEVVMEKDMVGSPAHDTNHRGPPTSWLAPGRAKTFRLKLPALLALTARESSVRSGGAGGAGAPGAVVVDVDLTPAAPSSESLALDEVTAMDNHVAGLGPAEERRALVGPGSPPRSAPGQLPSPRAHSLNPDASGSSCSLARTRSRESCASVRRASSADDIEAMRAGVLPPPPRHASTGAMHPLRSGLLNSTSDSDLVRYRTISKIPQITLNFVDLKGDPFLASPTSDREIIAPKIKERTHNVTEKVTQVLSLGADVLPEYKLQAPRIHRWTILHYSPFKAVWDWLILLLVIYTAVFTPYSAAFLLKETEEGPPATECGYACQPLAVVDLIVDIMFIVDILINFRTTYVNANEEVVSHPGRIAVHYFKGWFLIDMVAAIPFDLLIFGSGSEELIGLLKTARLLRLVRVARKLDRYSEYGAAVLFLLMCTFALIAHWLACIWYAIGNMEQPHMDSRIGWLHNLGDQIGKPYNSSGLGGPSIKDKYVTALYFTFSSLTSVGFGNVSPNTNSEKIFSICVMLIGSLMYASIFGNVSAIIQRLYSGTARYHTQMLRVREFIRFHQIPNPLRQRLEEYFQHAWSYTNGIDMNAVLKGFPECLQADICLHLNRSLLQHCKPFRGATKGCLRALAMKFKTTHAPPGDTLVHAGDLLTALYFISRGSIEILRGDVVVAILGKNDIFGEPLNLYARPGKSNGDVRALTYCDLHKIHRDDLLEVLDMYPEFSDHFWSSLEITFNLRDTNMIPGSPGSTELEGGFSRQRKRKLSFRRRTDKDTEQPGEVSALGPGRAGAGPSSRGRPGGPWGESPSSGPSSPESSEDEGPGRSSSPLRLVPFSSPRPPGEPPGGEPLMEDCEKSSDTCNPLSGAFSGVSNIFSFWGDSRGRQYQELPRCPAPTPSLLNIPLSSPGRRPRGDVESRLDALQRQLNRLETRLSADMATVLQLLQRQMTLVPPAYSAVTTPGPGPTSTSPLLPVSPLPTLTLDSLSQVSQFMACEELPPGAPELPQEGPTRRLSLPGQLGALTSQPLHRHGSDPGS

E. coli NIHJ = assay: antibacterial activity (MIC), standard method of Japanese Society of Chemotherapy
P. vulgaris, 08601 = assay: as above
S. marscecens, 10100 = assay: as above
P. aeruginosa, 32104 = assay: as above
P. aeruginosa, 32121 = assay: as above
S. aureus, 209P = assay: as above
S. epidermidis, 56500 = assay: as above
E. faecalis, ATCC 19433 = assay: as above
[5] = system: S. aureus, 87037 (LVFX-resistant MRSA); assay: as above; details: S. aureus, 87037 (LVFX-resistant MRSA)
[6] = system: S. pneumoniae, J24 (penicillin-intermediate resistant bacteria); assay: as above
in vivo = details: male, Crj:CD IGS, rat, po, 5 mg/kg
Protocol: as §1, §2, §3, §4, §5

hERG K+ channel [7] = biological target: T1, hERG K+ channel; assay: hERG-K^+ channel blocking effect
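Wherever Recovery (%) in urine in relation to the amount administered, 0-24 h is given: fasted 7-week-old rats, three per group, tissue sampled up to 8 h post-dose and urine collected over 0–24 h, with conjugates measured after alkaline hydrolysis, concentrations by LC-MS/MS.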
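Wherever Recovery (%) in urine in relation to the amount administered, Recovery (%) including conjugate is given: fasted 7-week-old rats, three per group, tissue sampled up to 8 h post-dose and urine collected over 0–24 h, with conjugates measured after alkaline hydrolysis, concentrations by LC-MS/MS.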
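Wherever Serum AUC0-8 h is given: fasted 7-week-old rats, three per group, tissue sampled up to 8 h post-dose and urine collected over 0–24 h, with conjugates measured after alkaline hydrolysis, concentrations by LC-MS/MS.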
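Wherever Serum Cmax (0.25 h) is given: fasted 7-week-old rats, three per group, tissue sampled up to 8 h post-dose and urine collected over 0–24 h, with conjugates measured after alkaline hydrolysis, concentrations by LC-MS/MS.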

In the case of `COc1c(N2C[C@@H](C)[C@@](C)(N)C2)c(F)cc2c(=O)c(C(=O)O)cn([C@@H]3C[C@@H]3F)c12` (relative stereo) [Example 3, 7-[(3R*,4R*)-3-Amino-3,4-dimethylpyrrolidin-1-yl]-6-fluoro-1-[(1R,2S)-2-fluorocyclopropyl]-8-methoxy-1,4-dihydro-4-oxoguinoline-3-carboxylic acid], the “micronucleus induction rate versus control, evaluation result” value ([1]; in vivo) is reported as “negative”, the “convulsant activity (animals affected / 6 animals per group)” value ([2]; 5 μg/mouse intracisternal) is reported as 0/6 and the “convulsant activity (animals affected / 6 animals per group)” value ([2]; 15 μg/mouse intracisternal) is reported as 2/6. The “convulsant activity (animals affected / 6 animals per group)” value ([2]; 50 μg/mouse intracisternal) was 6/6, the “Recovery (%) in urine in relation to the amount administered, 0-24 h” value [3] was 24.5% and the “Recovery (%) in urine in relation to the amount administered, Recovery (%) including conjugate” value [3] was 24.7%. The “Serum AUC0-8 h” value [3] was 1.85 µg·h/mL, the “Serum Cmax (0.25 h)” value [3] was 1.03 µg/mL and the “Tissue AUC0-8 h, Kidney” value [3] was 17.1 µg·h/mL. For the same molecule, the “Tissue AUC0-8 h, Liver” value [3] was 15.4 µg·h/mL, the “Tissue AUC0-8 h, Lung” value [3] was 7.38 µg·h/mL and the “Tissue Cmax, Kidney” value [3] was 8.83 µg/g. For the same molecule, the “Tissue Cmax, Liver” value [3] was 9.02 µg/g, the “Tissue Cmax, Lung” value [3] was 3.47 µg/g and the “hERG-K^+ channel blocking effect, Inhibition (%)” value (hERG K+ channel [4]; 30 µM) was 5.3 ± 4.1%. The “hERG-K^+ channel blocking effect, Inhibition (%)” value (hERG K+ channel [4]; 100 µM) was 12.0 ± 4.0%, the “hERG-K^+ channel blocking effect, Inhibition (%)” value (hERG K+ channel [4]; 300 µM) was 22.3 ± 0.7% and the MIC (E. coli NIHJ; E. coli NIHJ) was 0.012 mg/L (≈ 0.0295 µM). The MIC (P. vulgaris, 08601; P. vulgaris) was 0.05 mg/L (≈ 0.123 µM), the MIC (S. marscecens, 10100) was 0.2 mg/L (≈ 0.491 µM) and the MIC (P. aeruginosa, 32104; P. aeruginosa) was 0.39 mg/L (≈ 0.957 µM). It also gave an MIC (P. aeruginosa, 32121; P. aeruginosa) of 0.2 mg/L (≈ 0.491 µM), an MIC (S. aureus, 209P) of 0.025 mg/L (≈ 0.0614 µM) and an MIC (S. epidermidis, 56500; S. epidermidis) of 0.1 mg/L (≈ 0.245 µM). It also gave an MIC (E. faecalis, ATCC 19433; E. faecalis) of 0.2 mg/L (≈ 0.491 µM), an MIC [5] of 0.78 mg/L (≈ 1.91 µM) and an MIC [6] of 0.1 mg/L (≈ 0.245 µM).

In the case of `COc1c(N2C[C@H](C)[C@@](C)(N)C2)c(F)cc2c(=O)c(C(=O)O)cn([C@@H]3C[C@@H]3F)c12` (single isomer, unassigned) [Example 2, 7-[(3R*,4S*)-3-Amino-3,4-dimethylpyrrolidin-1-yl]-6-fluoro-1-[(1R,2S)-2-fluorocyclopropyl]-8-methoxy-1,4-dihydro-4-oxoquinoline-3-carboxylic acid], the “micronucleus induction rate versus control, evaluation result” value ([1]; single i.v. dose, 24 h, Example 2: 50, 100 mg/kg, Example 3: 100, 150 mg/kg, Example 9: 50, 100, 150 mg/kg) is reported as “negative”, the “Recovery (%) in urine in relation to the amount administered, Recovery (%) including conjugate” value ([3]; male, Crj:CD IGS) is reported as 26.6% and the “Tissue AUC0-8 h, Kidney” value ([3]; male, Crj:CD IGS) is reported as 14.7 µg·h/mL. For the same molecule, the “Tissue AUC0-8 h, Liver” value ([3]; male, Crj:CD IGS) was 17.4 µg·h/mL, the “Tissue AUC0-8 h, Lung” value ([3]; male, Crj:CD IGS) was 8.07 µg·h/mL and the “Tissue Cmax, Kidney” value ([3]; male, Crj:CD IGS) was 7.78 µg/g. The “Tissue Cmax, Liver” value ([3]; male, Crj:CD IGS) was 10.2 µg/g, the “Tissue Cmax, Lung” value ([3]; male, Crj:CD IGS) was 2.46 µg/g and the AUC(0-t) (in vivo) was 1.31 µg·h/mL. The Cmax (in vivo) was 0.67 µg/mL, the inhibition at 30 µM (hERG K+ channel [7]) was 3.8 ± 2.1% and the inhibition at 100 µM (hERG K+ channel [7]) was 8.5 ± 1.2%. The inhibition at 300 µM (hERG K+ channel [7]) was 18.2 ± 4.2%, the MIC (E. coli NIHJ; Escherichia coli) was 0.012 mg/L (≈ 0.0295 µM) and the MIC (P. vulgaris, 08601; Proteus vulgaris, 08601, P. vulgaris) was 0.025 mg/L (≈ 0.0614 µM). The MIC (S. marscecens, 10100) was 0.1 mg/L (≈ 0.245 µM), the MIC (P. aeruginosa, 32104; Pseudomonas aeruginosa) was 0.2 mg/L (≈ 0.491 µM) and the MIC (P. aeruginosa, 32121; Pseudomonas aeruginosa) was 0.1 mg/L (≈ 0.245 µM). It also gave an MIC (S. aureus, 209P; Staphylococcus aureus) of 0.025 mg/L (≈ 0.0614 µM), an MIC (S. epidermidis, 56500; Staphylococcus epidermidis, 56500, S. epidermidis) of 0.05 mg/L (≈ 0.123 µM) and an MIC (E. faecalis, ATCC 19433; Enterococcus faecalis, ATCC19433, E. faecalis) of 0.2 mg/L (≈ 0.491 µM). It also gave an MIC ([5]; Staphylococcus aureus, MRSA) of 0.78 mg/L (≈ 1.91 µM) and an MIC ([6]; Streptococcus pneumoniae) of 0.1 mg/L (≈ 0.245 µM).
